Reference: patent US20250382556A1, “MODULATION OF THE BRANCHED-CHAIN METABOLITE CONTENT OF FRUITS AND VEGETABLES” (BOARD OF TRUSTEES OF MICHIGAN STATE UNIVERSITY, priority 2024, published 2025)

Tests used:
[1] = test system: ‘Red Delicious’ apple fruit; assay: Physiology of MCP-treated stored apple fruit (respiration, firmness); format: in vivo, Malus x domestica Borkh.; conditions: Red Delicious after five months storage in air at 0° C. and warming
Procedure: ‘Gala’, ‘Empire’, ‘Jonagold’, and ‘Red Delicious’ apple fruit (Malus x domestica Borkh.) were harvested from local orchards at commercial maturity and transported to the laboratory during the 2022 and 2023 seasons. As determined by previously described methods, the fruit were at the developmental onset of ripening with no subjectively discernible aroma. ‘Gala’ and ‘Empire’ fruits began treatment immediately after arrival in the laboratory. ‘Jonagold’ fruit were held in air at 0° C. for two days before transfer to controlled atmosphere (CA) storage (1.5 O2, 3% CO2, 0° C.) and then kept in CA for twelve days to suppress ethylene action before the initiation of inhibitor treatment. ‘Red Delicious’ fruit were treated with 50 nL·^−1 1-methylcyclopropene (MCP) for 24 h at 0° C. The MCP was evolved from a commercial MCP product (EASYFRESH®, Fine Americas) in sealed chambers two days after harvest as previously described. The fruit were then stored in air at 0° C. for five months and were warmed to 22° C. for 24 h before sulfonylurea treatment. This low-dosage MCP treatment had very mild effects on physiology. […] Based on the internal ethylene concentration (˜100 μL·L^−1) and the total ester production (elevated and trending upwards), the fruit were considered to be of an advanced stage of ripeness, but not senescent. […]

banana pulp [2] = assay: Headspace volatile ester emissions of banana pulp sections treated with AHAS inhibitor; set-up: species or system Musa spp. AAA group, Cavendish subgroup, cv. Valery; key to 1-methylbutyl acetate emissions compared to control: —: Dash indicates no significant difference between treatments
From the text: Banana fruit at an early stage of ripening were infiltrated with AHAS inhibitors by two means. The first method was used for the effects of sulfonylureas on volatile and amino acid content, whereas the second was used to investigate the recovery of sulfonylurea-treated fruits after precursor application.
(§1) In the first method, mature green ‘Valery’ fruit were cut into ˜1 cm^2 sections, 2-mm thick, from transverse sections of fruit not treated with ethylene. Care was taken such that one edge of the square was from the edge of the pulp, thus representing an undisturbed or ‘live edge’ of cells that should be able to maintain unhindered gas exchange. Pulp sections were prepared in vials as above described for apples. Treatment solution: 0.5 mM halosulfuron-methyl (methyl 3-chloro-5-(4,6-dimethoxypyrimidin-2-ylcarbamoylsulfamoyl)-1-methylpyrazole-4-carboxylate, made from SANDEA®, Gowan Co. 75% w/w active ingredient; 0.1% Tween 20). Ripening was induced by injection of 1 μL ethylene into the vial's 20-mL headspace. The following day the vials were vented for 15 min before having the Mininert valve (Valco Instruments Co. Inc.) replaced on the vial but with a needle inserted to allow for gas diffusion. Daily for the following two days, 20 μL of freshly made inhibitor or water solution was added onto the pulp. The needles were again kept in the valves to maintain gas diffusion. The next day, and thus four days since initially preparing the vials, the needles were removed, and the vials were sealed and incubated for at least 1 hour at room temperature (22° C.) before headspace sampling.
Headspace volatiles from small tissue samples incubated in 22 mL vials were adsorbed for 30 s using a solid-phase micro extraction (SPME) fiber (65 μm PDMS-DVB; Supelco Analytical). The SPME fiber was then directly desorbed for 1 min in the injection port of a gas chromatograph (GC; HP-6890, Hewlett-Packard) coupled to a time-of-flight mass spectrometer (MS; Pegasus II, LECO). Whole fruits and banana slices were incubated for 20 min at room temperature (22° C.) in 1-L sealed Teflon jars before a 15-s, or 3-min adsorption and 1- or 2-min desorption. Adsorption times were adjusted to ensure instrument responses were in the linear range. All desorbed volatiles were cryofocused at the beginning of the column by immersing said region of the column in liquid nitrogen. After the desorption period, the run was initiated and the liquid nitrogen removed.
The conditions of the system were as follows. Injection port: 200° C., splitless, ultra-purified helium (99.999%) carrier gas, front inlet flow 1.5 mL·min^−1 constant, 10 mL·min^−1 purge flow, 11.5 mL·min^−1 total flow. Oven: initial temperature 40° C. for 0 min, ramped by 43° C.·min^−1 to 185° C. for 0 min. Column: HP-5 MS, 30 m×0.25 mm i.d., 0.25 μm film thickness (Agilent). Transfer line temperature 225° C. MS: Electron ionization (−70 eV), ion source temperature 200° C., solvent delay 50 sec, m/z range 29 to 400, detector voltage 1500 V, data collection rate 20 Hz.
Compounds were identified by comparison of the retention time and mass spectrum against authenticated reference standards and spectra (National Institute of Standards and Technology Mass Spectral Search Program Version 2.0, 2001). Volatiles were quantified by calibration with a standard of 59 authenticated, high-purity compounds (Sigma-Aldrich Co. and Fluka Chemical) including the target compounds. The standard was made by placing 0.5 μL of an equal-part mixture of the neat compounds onto a disc of filter paper before quickly placing the filter paper into a 4-L sealed flask fitted with a Mininert valve (for SPME fiber access, and allowed to vaporize for at least 6 hours. SPME adsorption and desorption times of the standard matched that of the samples quantified (e.g., 30-s adsorption, 1 min desorption when quantifying samples in 22-mL vials).
Statistical analysis was performed using SciPy (v1.6.2), RStudio (v2023.03.0+386), or Microsoft Excel (v16.89). […]

banana pulp [3] = assay: Free amino acid content of banana pulp via UPLC-MS/MS after AHAS inhibitor treatment; set-up: species or system Musa spp. AAA group, Cavendish subgroup, cv. Valery; key to free asparagine content compared to control / free glutamine content compared to control / free histidine content compared to control / free isoleucine content compared to control / free lysine content compared to control / free methionine content compared to control / free phenylalanine content compared to control / free threonine content compared to control / free tryptophan content compared to control / free arginine content compared to control: —: Dash indicates no significant difference between treatments
Procedure: as §1
After volatile analysis, apple peel disks, collected peel of flowering quince, and ‘Valery’ pulp section samples were held at −80° C. for further amino acid analysis.
Frozen samples were ground to a powder in liquid nitrogen-chilled mortar and pestles. About 500 mg of tissue was vortexed for 10 sec in 2 mL of room temperature (22° C.) extraction solution (1:1:1 water:acetonitrile:ethanol, v/v/v) spiked with 2 nmoles of U-^13C,^15N labeled amino acids (MilliporeSigma) as internal standards and heated for 15 min in a 65° C. water bath. Extracts were briefly chilled on ice before centrifugation at 4400×g for 15 min at 4° C. The supernatant was filtered by centrifugation (0.2 μm nylon centrifugal filter; Costar, Corning) at 21000×g for 5 min at room temperature. 10 μL of the filtrate was transferred to an autosampler vial and diluted 100-fold with 990 μL of 10.1 mM perfluorohexanoic acid (PFHA) spiked with […] of internal standard. Thus the final concentration of internal standard was ˜2 μM.
An amino acid standard series was prepared from a premade mixture (MilliporeSigma, AAS18) that contained equal molar amounts of cystine and all 20 proteinogenic amino acids save for tryptophan, asparagine, glutamine, and cysteine. An equal molar mixture of tryptophan, asparagine, glutamine, and cysteine was subsequently prepared. To avoid dilution errors or artefacts from differing buffers, these amino acid stocks were aliquoted and desiccated such that a five-part standard series ranging from 250 μM to 25 nM would be produced upon resuscitation with 10 μL of spiked extraction buffer and 990 μL spiked PFHA solution.
Samples and amino acids were held overnight at −20° C. before analysis. Amino acids were analyzed with a Xevo TQ-S Micro UPLC (H-Class)-MS/MS (Waters) at the Michigan State University Mass Spectrometry and Metabolomics Core. Conditions were as follows. HPLC column: Acquirt UPLC HSS T3, 2.1×100 mm, 1.7 μm particle size (Waters), with a 0.2 μm pre-column filter (Waters). Mobile phase: A) 10 mM PFHA in water, B) acetonitrile. LC gradient: linear gradient, slope setting=6, flow rate=0.3 mL·min^−1, step 1) 0 min, 100% A, 0% B, 2) 1 min, 100% A, 0% B, 3) 8 min, 35% A, 65% B, 4) 8.01 min, 10% A, 90% B, 5) 9 min, 10% A, 90% B, 6) 9.01 min, 100% A, 0% B, 7) 13 min, 100% A, 0% B. Column temp: 40° C. Autosampler temp: 10° C. Injection volume: 10 μL. Tune parameters: electrospray ionization, standard ESI probe, capillary voltage=+1.0 kV, source temp=120° C., desolvation temp=350° C., desolvation gas=800 L·hr^−1, cone gas=40 L·hr^−1. […]

[4] = Valery banana pulp sections, 0.5 mM

## CC1=CC1 [MCP, 1-methylcyclopropene]
[1]
  respiration rate of MCP-treated fruit relative to untreated fruit: 88.7%

## COC(=O)c1c(Cl)nn(C)c1S(=O)(=O)NC(=O)Nc1nc(OC)cc(OC)n1 [halosulfuron-methyl, methyl 3-chloro-5-(4,6-dimethoxypyrimidin-2-ylcarbamoylsulfamoyl)-1-methylpyrazole-4-carboxylate]
Banana pulp [2]; Valery banana fruit
  ethyl acetate, butyl acetate, and butyl butanoate collectively reduced: 95.0%
  reduction in the total content of iso-branched-chain esters in the headspace: 90.3%
  sec-branched esters or related volatiles (2-pentanone, 2-pentanol, 1-methylbutyl acetate, 1-methylbutyl butanoate) affected by inhibitor treatment: None
Banana pulp [2]; [4]
  1-methylbutyl acetate emissions compared to control: —
  2-methylpropyl acetate (val) emissions compared to control: 2.0 ± 0.7%
  3-methylbutyl acetate (leu) emissions compared to control: 10.4 ± 5.4%
  butyl acetate emissions compared to control: 3.9 ± 2.7%
  ethyl acetate emissions compared to control: 3.9 ± 2.4%
  sum of anteiso- and iso-branched-chain esters emissions compared to control: 9.7 ± 3.6%
Banana pulp [3]; Valery banana fruit
  isoleucine levels: unchanged
  total content of free amino acids: increased
  valine and leucine less abundant: 57.6%
Banana pulp [3]; [4]
  free alanine content compared to control: 407.4 ± 66.8%
  free arginine content compared to control: —
  free asparagine content compared to control: —
  free aspartate content compared to control: 332.7 ± 30.1%
  free cysteine content compared to control: 264.2 ± 46.6%
  free glutamate content compared to control: 217.4 ± 23.9%
  free glutamine content compared to control: —
  free glycine content compared to control: 173.1 ± 39.9%
  free histidine content compared to control: —
  free isoleucine content compared to control: —
  free leucine content compared to control: 65.8 ± 6.1%
  free lysine content compared to control: —
  free methionine content compared to control: —
  free phenylalanine content compared to control: —
  free proline content compared to control: 188.4 ± 18.7%
  free serine content compared to control: 186.2 ± 14.5%
  free threonine content compared to control: —
  free tryptophan content compared to control: —
  free tyrosine content compared to control: 142.3 ± 25.1%
  free valine content compared to control: 14.3 ± 0.8%
  total free amino acid content compared to control: 150.6 ± 13.7%
